Reference: ChEMBL document CHEMBL1201862, “PubChem BioAssay data set” (2004)
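Grown in 96-well plates, cells were treated for 48 hours with each compound at five concentrations. Insufficient inhibition: endpoint recorded as highest concentration tested. Abbreviation: GI50, concentration required for 50% inhibition of growth.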 Active and inactive are the calls of the source. Rule as the data show it: active = GI50 up to about 1.1 µM and inactive = higher. Where a SMILES comes first, the peptide text is derived from it. The star is where a group is joined. Boc = CC(C)(C)OC(=O)*

Assays:
Assay in all cases: NCI anticancer screen, dose series, 48 h
SNB-75 = tested on: SNB-75
PC-3 = tested on: PC-3
A549 = tested on: A549
HOP-92 = tested on: HOP-92
UACC-257 = tested on: UACC-257
NCI-H23 = tested on: NCI-H23
U-251 = tested on: U-251
M19-MEL = tested on: M19-MEL
Malme-3M = tested on: Malme-3M
HOP-62 = tested on: HOP-62
HL-60 = tested on: HL-60
MCF7 = tested on: MCF7
CAKI-1 = tested on: CAKI-1
EKVX = tested on: EKVX
786-0 = tested on: 786-0
MDA-N = tested on: MDA-N
SK-MEL-28 = tested on: SK-MEL-28
CCRF-CEM = tested on: CCRF-CEM
NCI/ADR-RES = tested on: NCI/ADR-RES
TK-10 = tested on: TK-10

Measured: GI50

C1CN(c2nnc(N3CCC3)nn2)C1
inactive: SNB-75 21 µM | PC-3 > 46 µM | A549 > 100 µM | HOP-92 > 100 µM | UACC-257 22.9 µM | NCI-H23 30.6 µM | U-251 > 71.8 µM | M19-MEL 15.1 µM | Malme-3M 44.4 µM | HOP-62 > 85.7 µM | HL-60 > 100 µM | MCF7 > 50.2 µM | CAKI-1 > 94.4 µM | EKVX > 85.3 µM | 786-0 34.8 µM | MDA-N 17.3 µM | SK-MEL-28 44.5 µM | CCRF-CEM > 100 µM | NCI/ADR-RES > 53 µM | TK-10 > 100 µM

COc1ccc(/C(Cl)=C(\C=O)c2cc(OC)c(OC)c(OC)c2)cc1OC
inactive: SNB-75 10.8 µM | PC-3 55.1 µM | A549 33.3 µM | HOP-92 49 µM | UACC-257 62.2 µM | NCI-H23 12.3 µM | U-251 23 µM | M19-MEL 35.2 µM | Malme-3M 15 µM | HOP-62 29.5 µM | HL-60 5.78 µM | CAKI-1 22.9 µM | EKVX 24.7 µM | 786-0 34.4 µM | MDA-N 12.3 µM | SK-MEL-28 61.8 µM | CCRF-CEM 26.1 µM | NCI/ADR-RES 13.2 µM | TK-10 56.6 µM

CC(C)(C)OC(=O)NC(Cc1ccc(O)cc1)C(=O)N1CCCC1C(=O)O (stereo not drawn) (Boc-Tyr-Pro-OH; configuration not given here)
inactive: SNB-75 > 100 µM | A549 > 100 µM | HOP-92 > 100 µM | UACC-257 > 100 µM | NCI-H23 > 100 µM | U-251 > 100 µM | M19-MEL > 100 µM | Malme-3M > 100 µM | HOP-62 > 100 µM | HL-60 > 100 µM | CAKI-1 > 100 µM | EKVX > 100 µM | 786-0 > 100 µM | SK-MEL-28 > 100 µM | CCRF-CEM > 100 µM | TK-10 > 100 µM

Cc1ccccc1SC(/C=C/NNC1=NN=C(c2ccccc2)C(c2ccccc2)N1)c1ccccc1 (stereo not drawn)
inactive: SNB-75 5.68 µM | A549 14.3 µM | HOP-92 9.57 µM | UACC-257 18.6 µM | NCI-H23 17.5 µM | U-251 24.9 µM | M19-MEL 26 µM | Malme-3M 22.4 µM | HOP-62 17.7 µM | HL-60 > 10 µM | CAKI-1 13.7 µM | EKVX 27.2 µM | 786-0 11.9 µM | SK-MEL-28 15.7 µM | CCRF-CEM 27.3 µM | TK-10 17.8 µM

Cc1ccc(C(=O)O/N=C2/CCCCC2CN(C)C)cc1 (stereo not drawn)
inactive: SNB-75 > 100 µM | A549 > 100 µM | HOP-92 > 100 µM | UACC-257 > 100 µM | NCI-H23 > 100 µM | U-251 > 100 µM | M19-MEL > 100 µM | Malme-3M > 100 µM | HOP-62 > 100 µM | HL-60 > 100 µM | CAKI-1 > 100 µM | EKVX > 100 µM | 786-0 > 100 µM | SK-MEL-28 > 100 µM | CCRF-CEM > 100 µM | TK-10 > 100 µM

c1ccc2cc(-c3cc4ccccc4s3)ccc2c1
inactive: SNB-75 23.1 µM | A549 > 100 µM | HOP-92 > 100 µM | UACC-257 > 100 µM | NCI-H23 > 100 µM | U-251 > 100 µM | M19-MEL > 100 µM | Malme-3M > 100 µM | HOP-62 > 100 µM | HL-60 > 100 µM | CAKI-1 > 100 µM | EKVX > 100 µM | 786-0 > 100 µM | SK-MEL-28 > 100 µM | CCRF-CEM > 100 µM | TK-10 > 100 µM
